This is an account of results in patent US20250120961A1, “P53 MODULATORS” (Nested Therapeutics, Inc., priority 2023, published 2025).

For the assay, the target named is His-tagged p53-Y220C DNA binding domain (Homo sapiens, UniProt P04637, Y220C). As to the kind of experiment: Biochemical p53-Y220C and DNA binding assay (HTRF). The conditions noted are these: inflection point of 10 points dose titration, 4 parameter curve fit; p53-Y220C DBD 100 nM, biotinylated dsDNA 200 nM, 27 to 29° C.; read-out: HTRF IP. From the text:
Biological Example 1. Biochemical p53-Y220C and DNA Binding Assay
The compounds of this invention can bind to p53-Y220C and increase the ability of the mutant p53 to bind to DNA at higher temperatures. His-tagged p53-Y220C DNA binding domain containing amino acid 94-312 is used to measure DNA binding activities in vitro with the sequence described below. (SEQ ID NO: 1: […]. Biotin labeled double strand DNA (dsDNA) containing consensus p53 binding sequence (SEQ ID NO: 2: Forward: 5′-(biotin)-[…]-3′; Reverse: 5′-(biotin)-[…]-3′) is used to measure protein-DNA binding activities. Compounds, His-tagged p53-Y220C DBD proteins (100 nM), and biotinylated dsDNA (200 nM) were mixed in ice-cold assay buffer containing DPBS, 20 mM NaCl, and 0.5% BAS, and incubated at 4° C. overnight in 384-well plate. Plates were transferred to incubator at 27 to 29° C. with constant shaking for 60 minutes. Equal volume of Homogeneous Time-Resolved Fluorescence (HTRF) dyes containing mAb anti-6HIS Tb cryptate gold and d2 labeled streptavidin in the assay buffer was added to each well and incubated at 27 to 29° C. with constant shaking for 60 minutes. The plate was read using Envision multimode plate reader. Reference compound 1 was used as high control and DMSO was used as low control. The percentage activation (A %) of protein-DNA binding by compounds was normalized by setting up high control (reference compound) as […] and low control (DMSO) as 0% (A %=(HTRF ratio of compound-HTRF ratio of low control)/(HTRF ratio of high control-HTRF ratio of low control)*500). 10 points dose titration curves for each compound were analyzed by 4 parameter curve fit and inflection point (IP) was reported. Reference compound 1 is shown below Table 1. Compounds of the invention are active in the HTRF assay. Data in Table 1 collected using Biological Example 1.
(In general: Time-resolved FRET reads energy transfer from a long-lived donor to a nearby acceptor.)
`F[C@H]1CNC[C@H]1Nc1cccc2c(CC(F)(F)F)c(/C=N/OC3CCOC3)sc12` (stereo partly drawn) [Example 3-1, (E)-7-(((3R,4S)-4-fluoropyrrolidin-3-yl)amino)-3-(2,2,2-trifluoroethyl)benzo[b]thiophene-2-carbaldehyde O-tetrahydrofuran-3-yl oxime]: the EC50 was under 100 nM.
Consider `OC1(CO/N=C/c2sc3c(N[C@@H]4CNC[C@@H]4F)cccc3c2CC(F)(F)F)CCNC1` (stereo partly drawn) [Example 1-12, (E)-7-(((3R,4S)-4-fluoropyrrolidin-3-yl)amino)-3-(2,2,2-trifluoroethyl)benzo[b]thiophene-2-carbaldehyde O-((3-hydroxypyrrolidin-3-yl)methyl) oxime], for which the EC50 lay within 100 to 1000 nM.
As to `OC1(CO/N=C/c2sc3c(N[C@@H]4CNC[C@@H]4F)cccc3c2CC(F)(F)F)CCC1` [Example 1-18, (E)-7-(((3R,4S)-4-fluoropyrrolidin-3-yl)amino)-3-(2,2,2-trifluoroethyl)benzo[b]thiophene-2-carbaldehyde O-((1-hydroxycyclobutyl)methyl) oxime], the EC50 lay within 100 to 1000 nM.
Take `CS(=O)(=O)NC1CCC(=Cc2sc3c(N[C@@H]4CCNC[C@@H]4F)cccc3c2CC(F)(F)F)CC1` (stereo partly drawn) [Example 4-1, N-(4-((7-(((3S,4R)-3-fluoropiperidin-4-yl)amino)-3-(2,2,2-trifluoroethyl)benzo[b]thiophen-2-yl)methylene)cyclohexyl)methanesulfonamide]: the EC50 was over 1000 nM.
Regarding `OC1CCCC1O/N=C/c1sc2c(N[C@@H]3CNC[C@@H]3F)cccc2c1CC(F)(F)F` (stereo partly drawn) [Example 1-17, (E)-7-(((3R,4S)-4-fluoropyrrolidin-3-yl)amino)-3-(2,2,2-trifluoroethyl)benzo[b]thiophene-2-carbaldehyde O-(2-hydroxycyclopentyl) oxime], the EC50 lay in the range of 100 to 1000 nM.
Then `CC(C)(C)O/N=C/c1sc2c(N[C@@H]3CNC[C@@H]3F)cccc2c1CC(F)(F)F` [Example 2-16, (E)-7-(((3R,4S)-4-fluoropyrrolidin-3-yl)amino)-3-(2,2,2-trifluoroethyl)benzo[b]thiophene-2-carbaldehyde O-(tert-butyl) oxime], with over 1000 nM; and `COCC(CO)O/N=C/c1sc2c(N[C@@H]3CNC[C@@H]3F)cccc2c1CC(F)(F)F` (stereo partly drawn) [Example 1-11, (E)-7-(((3R,4S)-4-fluoropyrrolidin-3-yl)amino)-3-(2,2,2-trifluoroethyl)benzo[b]thiophene-2-carbaldehyde O-(1-hydroxy-3-methoxypropan-2-yl) oxime], with over 1000 nM.
For the compound `OC1(CO/N=C/c2sc3c(N[C@@H]4CNC[C@@H]4F)cccc3c2CC(F)(F)F)CCOCC1` [Example 1-20, (E)-7-(((3R,4S)-4-fluoropyrrolidin-3-yl)amino)-3-(2,2,2-trifluoroethyl)benzo[b]thiophene-2-carbaldehyde O-((4-hydroxytetrahydro-2H-pyran-4-yl)methyl) oxime], the EC50 lay within 100 to 1000 nM.
As for `CN1CC[C@@H](Nc2cccc3c(CC(F)(F)F)c(/C=C/C(O)c4cnn5ccccc45)sc23)[C@@H](F)C1` (stereo partly drawn) [Example 5-6, (E)-3-(7-(((3S,4R)-3-fluoro-1-methylpiperidin-4-yl)amino)-3-(2,2,2-trifluoroethyl)benzo[b]thiophen-2-yl)-1-(pyrazolo[1,5-a]pyridin-3-yl)prop-2-en-1-ol], the figure is 100 to 1000 nM; as for `CC(O)(CO/N=C/c1sc2c(N[C@@H]3CNC[C@@H]3F)cccc2c1CC(F)(F)F)c1ccccc1` (stereo in doubt) [Example 1-24, (E)-7-(((3R,4S)-4-fluoropyrrolidin-3-yl)amino)-3-(2,2,2-trifluoroethyl)benzo[b]thiophene-2-carbaldehyde O-(2-hydroxy-2-phenylpropyl) oxime], 100 to 1000 nM.
`CN1CC[C@@H](Nc2cccc3c(CC(F)(F)F)c(/C=C/C(O)c4ccccn4)sc23)[C@@H](F)C1` (stereo partly drawn) [Example 5-2, (E)-3-(7-(((3S,4R)-3-fluoro-1-methylpiperidin-4-yl)amino)-3-(2,2,2-trifluoroethyl)benzo[b]thiophen-2-yl)-1-(pyridin-2-yl)prop-2-en-1-ol]: the EC50 is over 1000 nM.
In the case of `OC1CNCC1O/N=C/c1sc2c(N[C@@H]3CNC[C@@H]3F)cccc2c1CC(F)(F)F` (stereo partly drawn) [Example 1-36, (E)-7-(((3R,4S)-4-fluoropyrrolidin-3-yl)amino)-3-(2,2,2-trifluoroethyl)benzo[b]thiophene-2-carbaldehyde O-(4-hydroxypyrrolidin-3-yl) oxime], the EC50 lay in the range of 100 to 1000 nM.
Then `Cc1nnc(CO/N=C/c2sc3c(N[C@@H]4CNC[C@@H]4F)cccc3c2CC(F)(F)F)o1` [Example 3-6, (E)-7-(((3R,4S)-4-fluoropyrrolidin-3-yl)amino)-3-(2,2,2-trifluoroethyl)benzo[b]thiophene-2-carbaldehyde O-((5-methyl-1,3,4-oxadiazol-2-yl)methyl) oxime], with 100 to 1000 nM.
Consider `OC1CCCCC1O/N=C/c1sc2c(N[C@@H]3CNC[C@@H]3F)cccc2c1CC(F)(F)F` (stereo partly drawn) [Example 1-35, (E)-7-(((3R,4S)-4-fluoropyrrolidin-3-yl)amino)-3-(2,2,2-trifluoroethyl)benzo[b]thiophene-2-carbaldehyde O-(2-hydroxycyclohexyl) oxime], for which the EC50 was 100 to 1000 nM.
Turning to `CC(O/N=C/c1sc2c(N[C@@H]3CNC[C@@H]3F)cccc2c1CC(F)(F)F)c1cccnc1` (stereo partly drawn) [Example 2-25, (E)-7-(((3R,4S)-4-fluoropyrrolidin-3-yl)amino)-3-(2,2,2-trifluoroethyl)benzo[b]thiophene-2-carbaldehyde O-(1-(pyridin-3-yl)ethyl) oxime], the EC50 lay in the range of 100 to 1000 nM.
As for `CC(C)(O)CO/N=C/c1sc2c(N[C@@H]3CNC[C@@H]3F)cccc2c1CC(F)(F)F` [Example 1-7, (E)-7-(((3R,4S)-4-fluoropyrrolidin-3-yl)amino)-3-(2,2,2-trifluoroethyl)benzo[b]thiophene-2-carbaldehyde O-(2-hydroxy-2-methylpropyl) oxime], the figure is under 100 nM.
As to `CN1CC[C@@H](Nc2cccc3c(CC(F)(F)F)c(/C=N\OCc4cccc(=O)n4C)sc23)[C@@H](F)C1` [Example 2-30, (Z)-7-(((3S,4R)-3-fluoro-1-methylpiperidin-4-yl)amino)-3-(2,2,2-trifluoroethyl)benzo[b]thiophene-2-carbaldehyde O-((1-methyl-6-oxo-1,6-dihydropyridin-2-yl)methyl) oxime], the EC50 lay in the range of 100 to 1000 nM.
With `F[C@H]1CNC[C@H]1Nc1cccc2c(CC(F)(F)F)c(/C=N/OC3CCC3)sc12` [Example 2-24, (E)-7-(((3R,4S)-4-fluoropyrrolidin-3-yl)amino)-3-(2,2,2-trifluoroethyl)benzo[b]thiophene-2-carbaldehyde O-cyclobutyl oxime], the EC50 was 100 to 1000 nM.
Then `O=C1NC(CO/N=C/c2sc3c(N[C@@H]4CNC[C@@H]4F)cccc3c2CC(F)(F)F)CO1` (stereo partly drawn) [Example 2-19, (E)-7-(((3R,4S)-4-fluoropyrrolidin-3-yl)amino)-3-(2,2,2-trifluoroethyl)benzo[b]thiophene-2-carbaldehyde O-((2-oxooxazolidin-4-yl)methyl) oxime], with 100 to 1000 nM.
On to `Cc1oc(=O)oc1CO/N=C/c1sc2c(N[C@@H]3CNC[C@@H]3F)cccc2c1CC(F)(F)F` [Example 2-20, (E)-7-(((3R,4S)-4-fluoropyrrolidin-3-yl)amino)-3-(2,2,2-trifluoroethyl)benzo[b]thiophene-2-carbaldehyde O-((5-methyl-2-oxo-1,3-dioxol-4-yl)methyl) oxime], for which the EC50 lay within 100 to 1000 nM.
As to `O=C1CCC(CO/N=C/c2sc3c(N[C@@H]4CNC[C@@H]4F)cccc3c2CC(F)(F)F)N1` (stereo partly drawn) [Example 2-18, (E)-7-(((3R,4S)-4-fluoropyrrolidin-3-yl)amino)-3-(2,2,2-trifluoroethyl)benzo[b]thiophene-2-carbaldehyde O-((5-oxopyrrolidin-2-yl)methyl) oxime], the EC50 lay within 100 to 1000 nM.
As to `CN1CC[C@@H](Nc2cccc3c(CC(F)(F)F)c(/C=C/CNc4cccnc4)sc23)[C@@H](F)C1` [Example 7-1, N-((E)-3-(7-(((3S,4R)-3-fluoro-1-methylpiperidin-4-yl)amino)-3-(2,2,2-trifluoroethyl)benzo[b]thiophen-2-yl)allyl)pyridin-3-amine], the EC50 is 100 to 1000 nM.
With `COC(=O)NC/C=C/c1sc2c(N[C@@H]3CCN(C)C[C@@H]3F)cccc2c1CC(F)(F)F` [Example 6-4, methyl ((E)-3-(7-(((3S,4R)-3-fluoro-1-methylpiperidin-4 yl)amino)-3-(2,2,2-trifluoroethyl)benzo[b]thiophen-2-yl)allyl)carbamate], the EC50 was in the range of 100 to 1000 nM.
For `O=C1CC(CO/N=C/c2sc3c(N[C@@H]4CNC[C@@H]4F)cccc3c2CC(F)(F)F)CN1` (stereo partly drawn) [Example 3-8, (E)-7-(((3R,4S)-4-fluoropyrrolidin-3-yl)amino)-3-(2,2,2-trifluoroethyl)benzo[b]thiophene-2-carbaldehyde O-((5-oxopyrrolidin-3-yl)methyl) oxime], the EC50 is 100 to 1000 nM.
